Results taken from US9290511B2, “Thieno-pyrimidines, useful as potassium channel inhibitors” (XENTION LIMITED, priority 2011, dated 2016).

Target: T1, Kir3.1/3.4 (Rattus norvegicus, UniProt P48548+P63251)
T1 construct: expressed in transfected cells
T1 sequence (P63251 1-501): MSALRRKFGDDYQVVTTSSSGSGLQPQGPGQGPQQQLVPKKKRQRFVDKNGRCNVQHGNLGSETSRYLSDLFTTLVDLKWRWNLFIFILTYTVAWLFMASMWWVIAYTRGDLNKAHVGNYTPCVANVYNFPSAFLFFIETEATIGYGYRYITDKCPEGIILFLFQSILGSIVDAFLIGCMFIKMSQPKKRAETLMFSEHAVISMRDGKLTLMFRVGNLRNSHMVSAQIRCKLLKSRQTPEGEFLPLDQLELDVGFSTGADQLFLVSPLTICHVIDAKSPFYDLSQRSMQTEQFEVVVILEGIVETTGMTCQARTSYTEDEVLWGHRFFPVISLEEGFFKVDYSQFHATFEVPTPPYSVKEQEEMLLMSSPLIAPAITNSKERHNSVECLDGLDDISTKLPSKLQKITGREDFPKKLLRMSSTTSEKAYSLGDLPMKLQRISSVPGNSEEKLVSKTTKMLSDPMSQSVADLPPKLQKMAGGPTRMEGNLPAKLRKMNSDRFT
T1 sequence (P48548 1-419): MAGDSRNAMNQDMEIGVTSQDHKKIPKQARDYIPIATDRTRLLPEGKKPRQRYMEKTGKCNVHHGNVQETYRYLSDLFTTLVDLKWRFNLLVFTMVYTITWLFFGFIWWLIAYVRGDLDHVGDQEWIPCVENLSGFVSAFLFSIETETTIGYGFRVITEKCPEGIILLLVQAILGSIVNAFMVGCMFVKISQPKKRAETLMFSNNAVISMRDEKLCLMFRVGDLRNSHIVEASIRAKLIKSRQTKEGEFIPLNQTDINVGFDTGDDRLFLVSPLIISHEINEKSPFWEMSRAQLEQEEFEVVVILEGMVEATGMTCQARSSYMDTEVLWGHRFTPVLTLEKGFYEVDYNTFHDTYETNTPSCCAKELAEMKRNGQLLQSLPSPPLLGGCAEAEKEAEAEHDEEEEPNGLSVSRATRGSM
Assay: Kir3.1/3.4 Electrophysiology Method (manual whole-cell patch clamp)
Type: cell-based
Conditions: Electrophysiology Method (TABLE 1)
Outline: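 Manual whole-cell patch clamp on HEK293 cells stably expressing rat Kir3.1/3.4, with GTPγS in the pipette. Cells were held at −60 mV and stepped to +60 mV, then ramped to −140 mV every 10 s. Steady-state inhibition at −140 mV was measured after subtracting leak recorded in zero-K+ bath.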

IC50	SMILES
< 500 nM	COCC1CCN(c2nc(NCCN3CCCC3)nc3scc(-c4ccccc4)c23)CC1 [Example 175]
500 to 3000 nM	COCC1CCN(c2nc(NCCC3CCCN3C)nc3scc(C4CCCCC4)c23)CC1 (stereo not drawn) [Example 177]
500 to 3000 nM	c1ccc(COC2CCN(c3ncnc4scc(-c5ccccc5)c34)C2)cc1 (stereo not drawn) [Example 178, d]pyrimidine]
500 to 3000 nM	CN(C)C1CCN(c2nc(NCCN3CCCC3)nc3scc(-c4ccccc4)c23)CC1 [Example 179]
< 500 nM	c1ccc(-c2csc3ncnc(N4CCC(COc5cccnc5)CC4)c23)cc1 [Example 180]
500 to 3000 nM	c1ccc(-c2csc3ncnc(N4CCC(N5CCCCC5)C4)c23)cc1 (stereo not drawn) [Example 181, d]pyrimidine]
< 500 nM	COCC1CCN(c2nc(CC(=O)NCCN3CCCC3)nc3scc(-c4ccccc4)c23)CC1 [Example 182]
500 to 3000 nM	COCC1CCN(c2nc(CC(=O)N3CCCC3)nc3scc(-c4ccccc4)c23)CC1 [Example 183, 2-[4-[4-(methoxymethyl)-1-piperidyl]-5-phenyl-thieno[2,3-d]pyrimidin-2-yl]-1-pyrrolidin-1-yl-ethanone]
< 500 nM	COCC1CCN(c2nc(N(CCO)CCN3CCCC3)nc3scc(-c4ccccc4)c23)CC1 [Example 185]
500 to 3000 nM	OCCN(CCO)CC1CCN(c2ncnc3scc(-c4ccccc4)c23)CC1 [Example 186]
< 500 nM	CC(C)NCC1CCN(c2ncnc3scc(-c4ccccc4)c23)CC1 [Example 187]
500 to 3000 nM	CN(C)C1CCN(c2nc(N3CCC(O)C3)nc3scc(-c4ccccc4)c23)CC1 (stereo not drawn) [Example 188]
500 to 3000 nM	OC1CCN(c2nc(NCCN3CCCC3)nc3scc(-c4ccccc4)c23)C1 (stereo not drawn) [Example 189]
< 500 nM	O[C@H]1CCN(CC2CCN(c3ncnc4scc(-c5ccccc5)c34)CC2)C1 [Example 190]
< 500 nM	COCC1CCN(c2nc(N3CCC(CO)CC3)nc3scc(-c4ccccc4)c23)CC1 [Example 191]
< 500 nM	COCCNCC1CCN(c2nc(N3CCC(COC)CC3)c3c(-c4ccccc4)csc3n2)CC1 [Example 192]
< 500 nM	COCC1CCN(c2nc(N(C)C3CCN(C)C3)nc3scc(-c4ccccc4)c23)CC1 (stereo not drawn) [Example 193]
< 500 nM	OC1(CN2CCCC2)CCN(c2ncnc3scc(-c4ccccc4)c23)CC1 [Example 195]
< 500 nM	CC(C)NCC1CCN(c2ncnc3scc(C4CCCCC4)c23)CC1 [Example 196]
< 500 nM	CC1CN(CC2CCN(c3ncnc4scc(C5CCCCC5)c34)CC2)CC(C)O1 (stereo not drawn) [Example 197]
< 500 nM	CC1CCN(CC2CC(c3ccccc3)N(c3ncnc4scc(-c5ccccc5)c34)C2)C1 (stereo not drawn) [Example 198]
< 500 nM	O=C(Cc1nc(N2CCCC2c2ccccc2)c2c(-c3ccc(F)cc3)csc2n1)NCCN1CCCC1 (stereo not drawn) [Example 199]

IC50	SMILES
< 500 nM	OC1CCN(CC2CCN(c3ncnc4scc(C5CCCCC5)c34)CC2)C1 (stereo not drawn) [Example 200]
< 500 nM	OCCN(CCO)CC1CCN(c2ncnc3scc(C4CCCCC4)c23)CC1 [Example 201]
< 500 nM	CN1CCC(N(C)CC2CCN(c3ncnc4scc(-c5ccccc5)c34)CC2)C1 (stereo not drawn) [Example 202]
500 to 3000 nM	CN(CC1CCN(c2ncnc3scc(-c4ccccc4)c23)CC1)C1CCOC1 (stereo not drawn) [Example 203]
< 500 nM	CN1CCCC1CCNCC1CCN(c2ncnc3scc(-c4ccccc4)c23)C1 (stereo not drawn) [Example 204]
< 500 nM	CN1CCC(N(C)CC2CCN(c3ncnc4scc(-c5ccccc5)c34)C2)C1 (stereo not drawn) [Example 205]
< 500 nM	c1ccc(-c2csc3ncnc(N4CCC(CNCCN5CCCC5)CC4)c23)cc1 [Example 206]
500 to 3000 nM	c1ccc(-c2csc3ncnc(N4CCCC(CNC5CCC5)C4)c23)cc1 (stereo not drawn) [Example 207]
< 500 nM	CN(C)C1CCCN(CC2CCCN(c3ncnc4scc(-c5ccccc5)c34)C2)C1 (stereo not drawn) [Example 208]
< 500 nM	CC1CC(CNCCC2CCCN2C)CN1c1ncnc2scc(-c3ccccc3)c12 (stereo not drawn) [Example 209]
< 500 nM	Cc1csc2ncnc(N3CC(CNCCC4CCCN4C)CC3c3ccccc3)c12 (stereo not drawn) [Example 210]
< 500 nM	NC1CCCN(CC2CCN(c3ncnc4scc(-c5ccccc5)c34)CC2)C1 (stereo not drawn) [Example 211]
< 500 nM	FC(F)(F)C1CCCN(CC2CCN(c3ncnc4scc(-c5ccccc5)c34)CC2)C1 (stereo not drawn) [Example 212]
500 to 3000 nM	O=C1CN(CC2CCN(c3ncnc4scc(-c5ccccc5)c34)CC2)CCN1 [Example 213]
< 500 nM	CN(C)[C@H]1CCCN(CC2CCN(c3ncnc4scc(-c5ccccc5)c34)CC2)C1 [Example 215]
< 500 nM	CN(C)[C@@H]1CCCN(CC2CCN(c3ncnc4scc(-c5ccccc5)c34)CC2)C1 [Example 216]
< 500 nM	CN(C)CCCNCC1CCN(c2ncnc3scc(-c4ccccc4)c23)CC1 [Example 217]
< 500 nM	c1ccc(-c2csc3ncnc(N4CCC(CN5CCC(N6CCCCC6)C5)CC4)c23)cc1 (stereo not drawn) [Example 218]
< 500 nM	CN1CCCC1CCNCC1CN(c2ncnc3scc(-c4ccccc4)c23)C1 (stereo not drawn) [Example 219]
< 500 nM	Cc1sc2ncnc(N3CCC(CNCCC4CCCN4C)CC3)c2c1C (stereo not drawn) [Example 220]
< 500 nM	Cn1ccnc1CCNCC1CCN(c2ncnc3scc(-c4ccccc4)c23)CC1 [Example 221]
< 500 nM	CN(C)C1CCN(C2CCN(c3ncnc4scc(-c5ccccc5)c34)CC2)CC1 [Example 222]

IC50	SMILES
< 500 nM	CN1CCC(NC2CCN(c3ncnc4scc(-c5ccccc5)c34)CC2)CC1 [Example 223]
< 500 nM	CN(C)CCN(C)CC1CCN(c2nc(N3CCC(C(N)=O)C3)nc3scc(-c4ccccc4)c23)CC1 (stereo not drawn) [Example 225]
< 500 nM	CC(=O)NC1CCN(c2nc(N3CCC(CN(C)C4CCN(C)C4)CC3)c3c(-c4ccccc4)csc3n2)C1 (stereo not drawn) [Example 226]
< 500 nM	CNC(=O)C1CCCN(c2nc(N3CCC(CN(C)C4CCN(C)C4)CC3)c3c(-c4ccccc4)csc3n2)C1 (stereo not drawn) [Example 227]
< 500 nM	CCN(CC)C(=O)C1CCCN(c2nc(N3CCC(CN(C)C4CCN(C)C4)CC3)c3c(-c4ccccc4)csc3n2)C1 (stereo not drawn) [Example 228]
< 500 nM	CN1CCC(N(C)CC2CCN(c3nc(N4CCC[C@@H]4C(N)=O)nc4scc(-c5ccccc5)c34)CC2)C1 (stereo partly drawn) [Example 229]
< 500 nM	CN1CCC(N(C)C2CCN(c3ncnc4scc(-c5ccccc5)c34)CC2)C1 (stereo not drawn) [Example 231]
< 500 nM	Cc1sc2ncnc(N3CCC(CNC4CCN(C)CC4)CC3)c2c1C [Example 232]
< 500 nM	Cc1sc2ncnc(N3CCC(CNCCC4CCCCN4C)CC3)c2c1C (stereo not drawn) [Example 233]
< 500 nM	Cc1sc2ncnc(N3CCC(CN4CCCC(N(C)C)C4)CC3)c2c1C (stereo not drawn) [Example 234]
< 500 nM	CN(C)C1CCN(CC2CCN(c3nc(N4CCC(C(N)=O)C4)nc4scc(-c5ccccc5)c34)CC2)CC1 (stereo not drawn) [Example 235]
< 500 nM	CN(C)[C@@H]1CCN(CC2CCN(c3nc(N4CCC(C(N)=O)C4)nc4scc(-c5ccccc5)c34)CC2)C1 (stereo partly drawn) [Example 236]
< 500 nM	CN1CCC(N(C)CC2CCN(c3nc(N4CC(C(N)=O)C4)nc4scc(-c5ccccc5)c34)CC2)C1 (stereo not drawn) [Example 237]
< 500 nM	CN1CCC(N(C)CC2CCN(c3nc(N4CCCC(C(N)=O)C4)nc4scc(-c5ccccc5)c34)CC2)C1 (stereo not drawn) [Example 238]
< 500 nM	CN1CCC(N(C)CC2CCN(c3nc(N4CCC(C(N)=O)CC4)nc4scc(-c5ccccc5)c34)CC2)C1 (stereo not drawn) [Example 239]
< 500 nM	Cc1sc2nc(N3CCC(C(N)=O)C3)nc(N3CCC(CNCCC4CCCCN4C)CC3)c2c1C (stereo not drawn) [Example 240]
< 500 nM	CC(=O)N(C)C1CCN(c2nc(N3CCC(CN(C)C4CCN(C)C4)CC3)c3c(-c4ccccc4)csc3n2)CC1 (stereo not drawn) [Example 241]
< 500 nM	CC(C)c1csc2ncnc(N3CCC(CNCCC4CCCN4C)CC3)c12 (stereo not drawn) [Example 242]
< 500 nM	Cc1csc2ncnc(N3CCC(CNCCC4CCCN4C)CC3)c12 (stereo not drawn) [Example 243]
< 500 nM	CN1CCC(N(C)CC2CCN(c3nc(CN4CCCC4=O)nc4scc(-c5ccccc5)c34)CC2)C1 (stereo not drawn) [Example 244, 1-[[4-[4-[[methyl-(1-methylpyrrolidin-3-yl)amino]methyl]-1-piperidyl]-5-phenyl-thieno[2,3-d]pyrimidin-2-yl]methyl]pyrrolidin-2-one]

SMILES	IC50
COCC1CCN(c2nc(CCN3CCCC3)nc3scc(-c4ccc(F)cc4)c23)CC1 [Example 184, 5-(4-fluorophenyl)-4-[4-(methoxymethyl)-1-piperidyl]-2-(2-pyrrolidin-1-ylethyl)thieno[2,3-d]pyrimidine]	< 500 nM
CN1CCN(CC2CCN(c3ncnc4scc(-c5ccccc5)c34)CC2)CC1 [Example 214]	< 500 nM
